Data as given in ChEMBL document CHEMBL4138268, “Discovery of Spiro Oxazolidinediones as Selective, Orally Bioavailable Inhibitors of p300/CBP Histone Acetyltransferases” (ACS Med Chem Lett, 2018).

Tests used:
[1] = target: CREB-binding protein/Histone acetyltransferase p300 (Homo sapiens, UniProt Q09472+Q92793); experiment: Inhibition of p300/CBP (unknown origin) using biotinylated synthetic Histone H4 Peptide as substrate pretreated for 30 mins followed by substrate addition measured after 1 hr by radiometric scintillation proximity assay; assay type: protein assay
[2] = Permeability of the compound by PAMPA; assay type: ADME
[3] = Clearance in mouse microsomes; assay type: ADME, Microsome
[4] = Unbound fraction in human microsomes; assay type: ADME, Microsome
[5] = Unbound intrinsic clearance in mouse microsomes; assay type: ADME, Microsome
Mus musculus [6] = experiment: Plasma clearance in mouse at 1 mg/kg, iv; assay type: ADME, organism-based; settings: in vivo
[7] = Protein binding in mouse plasma; assay type: ADME, cell-free
Mus musculus [8] = organism: Mus musculus; experiment: Unbound plasma clearance in mouse; assay type: ADME, organism-based; settings: in vivo
[9] = Oral bioavailability in mouse; assay type: ADME, organism-based; settings: in vivo
[10] = AUC in mouse at 10 mg/kg, po; assay type: ADME, organism-based; settings: in vivo

Compound `CC(C1CC1)N(Cc1ccccc1)C(=O)CN1C(=O)NC(Cc2c[nH]c3ccccc23)C1=O` (stereo not drawn) has an IC50 [1] of 5.1 µM.

In the case of `CNC(=O)Nc1ccc2c(c1)CC[C@]21NC(=O)N(CC(=O)N(Cc2ccccc2)[C@@H](C)C2CC2)C1=O`, the permeability [2] is reported as 0.47 ×10⁻⁶ cm/s.

`C[C@@H](C1CC1)N(Cc1ccccc1)C(=O)CN1C(=O)NC(c2ccccc2)C1=O` (stereo partly drawn) showed an IC50 [1] of 7.6 µM.

With `CNC(=O)Nc1ccc2c(c1)CC[C@@]21OC(=O)N(CC(=O)N(Cc2ccccc2)[C@@H](C)C2CC2)C1=O` the permeability [2] was 2.35 ×10⁻⁶ cm/s, the CLint scaled [3] was 1780 mL/min/kg and the Fu [4] was 0.48. For the same compound, the CL free [5] was 3130 mL/min/kg, the CL (Mus musculus [6]) was 27 mL/min/kg and the PPB [7] was 99.1%. The CL free (Mus musculus [8]) was 3100 mL/min/kg, the bioavailability [9] was 40% and the AUC [10] was 2500 ng·h/mL.

`Cc1ccccc1C1NC(=O)N(CC(=O)N(Cc2ccccc2)[C@@H](C)C2CC2)C1=O` (stereo partly drawn) gave an IC50 [1] of 2.7 µM.
